Reference: patent US6825170B2, “6-O-acyl ketolide antibacterials” (Ortho-McNeil Pharmaceutical, Inc., priority 2001, dated 2004)
≈ marks a conversion by molar mass, not a printed value.

Experiments:
Assay in all cases: MIC, microdilution broth method (NCCLS)
Format in all cases: cell-based
Details in all cases: 35° C., 16-20 hours
H. influenzae ATCC49247 = system: H. influenzae ATCC49247
Method: (§1) Minimal inhibitory concentration (MIC) has been an indicator of in vitro antibacterial activity widely used in the art. The in vitro antimicrobial activity of the compounds was determined by the microdilution broth method following the test method from the National Committee for Clinical Laboratory Standards (NCCLS). This method is described in the NCCLS Document M7-A4, Vol.17, No.2, “Methods for Dilution Antimicrobial Susceptibility Test for Bacteria that Grow Aerobically—Fourth Edition”, which is incorporated herein by reference.
(§2) In this method two-fold serial dilutions of drug in cation adjusted Mueller-Hinton broth are added to wells in microdilution trays. The test organisms are prepared by adjusting the turbidity of actively growing broth cultures so that the final concentration of test organism after it is added to the wells is approximately 5×10^4 CFU/well.
(§3) Following inoculation of the microdilution trays, the trays are incubated at 35° C. for 16-20 hours and then read. […] The amount of growth in the wells containing the test compound is compared with the amount of growth in the growth-control wells (no test compound) used in each tray. As set forth in Table 1, compounds of the present invention were tested against a variety of Gram positive and Gram negative pathogenic bacteria resulting in a range of activities depending on the organism tested.

S. aureus ATCC29213 = system: S. aureus ATCC29213
Method: as §1, §2, §3

E. faecalis ATCC29212 = system: E. faecalis ATCC29212
Method: as §1, §2, §3

S. pneumoniae ATCC49619 = system: S. pneumoniae ATCC49619
Method: as §1, §2, §3

Row | SMILES | MIC (E: H. influenzae ATCC49247) (H. influenzae ATCC49247) [µg/mL] | MIC (B: S. aureus ATCC29213) (S. aureus ATCC29213) [µg/mL] | MIC (C: E. faecalis ATCC29212) (E. faecalis ATCC29212) [µg/mL] | MIC (D: S. pneumoniae ATCC49619) (S. pneumoniae ATCC49619)
1 | CCC1OC(=O)C(C)C(=O)C(C)C(OC2OC(C)CC(N(C)C)C2O)C(C)(OC(=O)OCC=Cc2cccc(-c3ncccn3)c2)CC(C)C(=O)C(C)C2NC(=O)OC12C (centres unmarked) [Compound 15] | 0.5 (≈ 0.597 µM) | 0.12 (≈ 0.143 µM) | 0.06 (≈ 0.0717 µM) | 0.03 µg/mL (≈ 0.0358 µM)
2 | CCC1OC(=O)C(C)C(=O)C(C)C(OC2OC(C)CC(N(C)C)C2O)C(C)(OC(=O)OCC=Cc2ccc(-c3cnccn3)cc2)CC(C)C(=O)C(C)C2NC(=O)OC12C (centres unmarked) [Compound 19] |  | 0.12 (≈ 0.143 µM) | 0.06 (≈ 0.0717 µM) | ≦0.015 μg/mL
3 | CCC1OC(=O)C(C)C(=O)C(C)C(OC2OC(C)CC(N(C)C)C2O)C(C)(OC(=O)OCC=Cc2ccc(-n3cccn3)cc2)CC(C)C(=O)C(C)C2NC(=O)OC12C (centres unmarked) [Compound 21] |  | 0.12 (≈ 0.145 µM) | 0.06 (≈ 0.0727 µM) | ≦0.015 μg/mL
4 | CCC1OC(=O)C(C)C(=O)C(C)C(OC2OC(C)CC(N(C)C)C2O)C(C)(OC(=O)OCC=Cc2ccc(-n3cncn3)cc2)CC(C)C(=O)C(C)C2NC(=O)OC12C (centres unmarked) [Compound 22] | 0.5 (≈ 0.605 µM) | 0.25 (≈ 0.303 µM) | 0.06 (≈ 0.0726 µM) | ≦0.015 μg/mL
5 | CCC1OC(=O)C(C)C(=O)C(C)C(OC2OC(C)CC(N(C)C)C2O)C(C)(OC(=O)OCC=Cc2ccc(-n3ccnn3)cc2)CC(C)C(=O)C(C)C2NC(=O)OC12C (centres unmarked) [Compound 24] | 1 (≈ 1.21 µM) | 0.12 (≈ 0.145 µM) | 0.06 (≈ 0.0726 µM) | ≦0.015 μg/mL
6 | CCC1OC(=O)C(C)C(=O)C(C)C(OC2OC(C)CC(N(C)C)C2O)C(C)(OC(=O)OCC=Cc2ccc(-c3ccn(C)n3)cc2)CC(C)C(=O)C(C)C2NC(=O)OC12C (centres unmarked) [Compound 26] | 2 (≈ 2.38 µM) | 0.25 (≈ 0.298 µM) | 0.12 (≈ 0.143 µM) | 0.03 µg/mL (≈ 0.0358 µM)
7 | CCC1OC(=O)C(C)C(=O)C(C)C(OC2OC(C)CC(N(C)C)C2O)C(C)(OC(=O)OCC=Cc2ccc(-n3cccn3)cc2F)CC(C)C(=O)C(C)C2NC(=O)OC12C (centres unmarked) [Compound 30] | 1 (≈ 1.19 µM) | 0.12 (≈ 0.142 µM) | 0.06 (≈ 0.0712 µM) | ≦0.015 μg/mL
8 | CCC1OC(=O)C(C)C(=O)C(C)C(OC2OC(C)CC(N(C)C)C2O)C(C)(OC(=O)OCC=Cc2ccc3ncccc3c2)CC(C)C(=O)C(C)C2NC(=O)OC12C (centres unmarked) [Compound 40] |  | 0.12 (≈ 0.148 µM) | 0.06 (≈ 0.0741 µM) | 0.06 µg/mL (≈ 0.0741 µM)
9 | CCC1OC(=O)C(C)C(=O)C(C)C(OC2OC(C)CC(N(C)C)C2O)C(C)(OC(=O)OCC=Cc2ccc3nccnc3c2)CC(C)C(=O)C(C)C2NC(=O)OC12C (centres unmarked) [Compound 44] |  | 0.12 (≈ 0.148 µM) | 0.06 (≈ 0.074 µM) | ≦0.015 μg/mL
10 | CCC1OC(=O)C(C)C(=O)C(C)C(OC2OC(C)CC(N(C)C)C2O)C(C)(OC(=O)OCCCc2ccc(-c3ncccn3)cc2)CC(C)C(=O)C(C)C2NC(=O)OC12C (centres unmarked) [Compound 139] |  | 0.12 (≈ 0.143 µM) | 0.06 (≈ 0.0715 µM) | 0.12 µg/mL (≈ 0.143 µM)
11 | CCC1OC(=O)C(C)(F)C(=O)C(C)C(OC2OC(C)CC(N(C)C)C2O)C(C)(OC(=O)OCC=Cc2ccc(-c3ncccn3)cc2)CC(C)C(=O)C(C)C2NC(=O)OC12C (centres unmarked) [Compound 288] |  | 0.25 (≈ 0.292 µM) | 0.12 (≈ 0.14 µM) | 0.06 µg/mL (≈ 0.0702 µM)
12 | CCC1OC(=O)C(C)C(=O)C(C)C(OC2OC(C)CC(N(C)C)C2O)C(C)(OC(=O)NOCCc2ccc(-c3cnccn3)cc2)CC(C)C(=O)C(C)C2NC(=O)OC12C (centres unmarked) [Compound 578] |  | 0.5 (≈ 0.595 µM) | 0.25 (≈ 0.298 µM) | 0.12 µg/mL (≈ 0.143 µM)
13 | CCC1OC(=O)C(C)C(=O)C(C)C(OC2OC(C)CC(N(C)C)C2O)C(C)(OC(=O)NOCC#Cc2ccc(-c3ncccn3)cc2)CC(C)C(=O)C(C)C2NC(=O)OC12C (centres unmarked) [Compound 602] |  | 0.25 (≈ 0.294 µM) | 0.12 (≈ 0.141 µM) | 0.03 µg/mL (≈ 0.0353 µM)
14 | CCC1OC(=O)C(C)C(=O)C(C)C(OC2OC(C)CC(N(C)C)C2O)C(C)(OC(=O)NOCC=Cc2ccc(-c3cnccn3)cc2)CC(C)C(=O)C(C)C2NC(=O)OC12C (centres unmarked) [Compound 606] |  | 0.25 (≈ 0.293 µM) | 0.12 (≈ 0.141 µM) | 0.06 µg/mL (≈ 0.0704 µM)
15 | CCC1OC(=O)C(C)C(=O)C(C)C(OC2OC(C)CC(N(C)C)C2O)C(C)(OC(=O)NOCC=Cc2ccc(-c3cccnn3)cc2)CC(C)C(=O)C(C)C2NC(=O)OC12C (centres unmarked) [Compound 607] |  | 0.25 (≈ 0.293 µM) | 0.25 (≈ 0.293 µM) | 0.03 µg/mL (≈ 0.0352 µM)
16 | CC[C@H]1OC(=O)[C@H](C)C(=O)[C@H](C)[C@@H](O[C@@H]2O[C@H](C)C[C@H](N(C)C)[C@H]2O)[C@](C)(OC(=O)NOC/C=C/c2cccnc2)C[C@@H](C)C(=O)[C@H](C)[C@H]2NC(=O)O[C@@]21C [Compound 615] |  | 1 (≈ 1.29 µM) | 0.25 (≈ 0.323 µM) | 0.06 µg/mL (≈ 0.0774 µM)
17 | CC[C@H]1OC(=O)[C@H](C)C(=O)[C@H](C)[C@@H](O[C@@H]2O[C@H](C)C[C@H](N(C)C)[C@H]2O)[C@](C)(OC(=O)NOC/C=C/c2cccc(-c3ncccn3)c2)C[C@@H](C)C(=O)[C@H](C)[C@H]2NC(=O)O[C@@]21C [Compound 616] |  | 0.5 (≈ 0.587 µM) | 0.25 (≈ 0.293 µM) | 0.06 µg/mL (≈ 0.0704 µM)
18 | CC[C@H]1OC(=O)[C@H](C)C(=O)[C@H](C)[C@@H](O[C@@H]2O[C@H](C)C[C@H](N(C)C)[C@H]2O)[C@](C)(OC(=O)NOC/C=C/c2ccc(-c3ccccn3)cc2)C[C@@H](C)C(=O)[C@H](C)[C@H]2NC(=O)O[C@@]21C [Compound 617] |  | 0.25 (≈ 0.294 µM) | 0.12 (≈ 0.141 µM) | 0.03 µg/mL (≈ 0.0353 µM)
19 | CC[C@H]1OC(=O)[C@H](C)C(=O)[C@H](C)[C@@H](O[C@@H]2O[C@H](C)C[C@H](N(C)C)[C@H]2O)[C@](C)(OC(=O)NOC/C=C/c2ccc(-n3cccn3)cc2)C[C@@H](C)C(=O)[C@H](C)[C@H]2NC(=O)O[C@@]21C [Compound 619] |  | 0.25 (≈ 0.298 µM) | 0.12 (≈ 0.143 µM) | 0.03 µg/mL (≈ 0.0357 µM)
20 | CC[C@H]1OC(=O)[C@H](C)C(=O)[C@H](C)[C@@H](O[C@@H]2O[C@H](C)C[C@H](N(C)C)[C@H]2O)[C@](C)(OC(=O)NOC/C=C/c2cnc3ccccc3c2)C[C@@H](C)C(=O)[C@H](C)[C@H]2NC(=O)O[C@@]21C [Compound 620] |  | 0.5 (≈ 0.606 µM) | 0.12 (≈ 0.145 µM) | 0.03 µg/mL (≈ 0.0364 µM)
21 | CC[C@H]1OC(=O)[C@H](C)C(=O)[C@H](C)[C@@H](O[C@@H]2O[C@H](C)C[C@H](N(C)C)[C@H]2O)[C@](C)(OC(=O)N(C)OCCc2ccc(-c3ncccn3)cc2)C[C@@H](C)C(=O)[C@H](C)[C@H]2NC(=O)O[C@@]21C [Compound 621] |  | 1 (≈ 1.17 µM) | 0.25 (≈ 0.293 µM) | 0.12 µg/mL (≈ 0.141 µM)
